Data from paper PMC6804243, “Small-Molecule Inhibition of UBE2T/FANCL-Mediated Ubiquitylation in the Fanconi Anemia Pathway” (ACS Chemical Biology, 2019).
Where two headings read alike, the source gives them in different places.

Columns and labels:
[1] = target: T1, UBE2T/FANCLRING (ubiquitylation of GST-FANCLRING) (Homo sapiens, UniProt Q9NW38); assay: biochemical; settings: for LE: ligand efficiency = 1.4(–logIC50)/HAC; for inhibition at 20 µM: read-out: Primary screen % Inhibition (20 M)
T1 sequence (Q9NW38 275-375 limits assumed): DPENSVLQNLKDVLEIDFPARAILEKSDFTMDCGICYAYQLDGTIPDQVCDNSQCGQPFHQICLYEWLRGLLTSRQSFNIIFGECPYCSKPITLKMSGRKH
Excerpt: To identify small-molecule inhibitors of the FA pathway, we developed a high-throughput screen (HTS) compatible assay based on the FA ubiquitylation cascade (see Figure 1a, as well as Figure S1 in the Supporting Information). Given the complexity of the full FA ubiquitylation cascade, we constructed a simplified ubiquitylation reaction that would be robust for HTS purposes yet still provide many relevant protein species for small molecules to interact with. The recombinant protein assay developed used homogeneous time-resolved fluorescence (HTRF) and contained Cy5-labeled ubiquitin, the E1 enzyme UBE1, the E2 enzyme UBE2T, and the RING domain (residues 275–375) of the E3 FANCL (FANCLRING). FANCLRING was used as a surrogate substrate for ubiquitylation in the absence of the FA core and FANCD2/FANCI complexes.
Figure 1 Screening for inhibitors of the FA pathway. (a) Schematic of the HTRF ubiquitylation assay. Ubiquitylation of GST-tagged E3 (FANCLRING) by the E2 (UBE2T) places Cy5-labeled ubiquitin in close proximity to the anti-GST Tb cryptate. Excitation of the Tb cryptate donor results in FRET to the Cy5 acceptor. Simultaneous monitoring of the donor emission (620 nm) and acceptor emission (665 nm) allows for determination of the 665/620 ratio. (b) HTRF screen results showing average inhibition (n = 2) produced by compounds at 20 μM (in-house diversity library; 10 111 compounds) and 10 μM (Selleckchem epigenetic library; 119 compounds). Numbers given in parentheses represent the number of compounds per inhibition threshold.
Purified protein was concentrated using a Vivaspin-6 concentrator with a 10 kDa MW cut-off (Vivascience) and flash-frozen in small aliquots for storage at […]
Cy5 labelling of ubiquitin. To a 5 mg/mL solution of recombinant human ubiquitin (Boston Biochem) in 0.1 M NaHCO3 pH 8.3, was added a 4-fold molar excess of Cyanine5 NHS ester (Lumiprobe). The reaction was incubated at 23 °C for 4 hours in the dark. The protein was separated from unreacted dye by passage through a PD-10 desalting column (GE Healthcare) equilibrated with PBS. Purified protein was concentrated using a Vivaspin-6 concentrator with a 3 kDa MW cut-off (Vivascience) and flash-frozen in small aliquots for storage […]
Homogeneous Time-Resolved Fluorescence (HTRF) Assay. GST-FANCLRING (200 nM) was incubated with anti-GST Tb (CisBio, #61GSTTL) (2.5 ng final) at room temperature for 30 minutes in assay buffer (50 mM Tris-HCl pH 8.0, 1 mM TCEP, 5 mM MgCl2, 0.005% Tween-20). Meanwhile, 10 μL of UBE2T in assay buffer (or assay buffer alone for no enzyme controls) was incubated in a white 384-well plate (Corning) with 20 nL DMSO or compound in DMSO. After 30 minutes, the GST-RINGRING solution was added to an equal volume solution containing His-UBE1 (Boston Biochem) (16 nM), Cy5-ubiquitin (400 nM), ATP (0.8 mM) in assay buffer. 10 μL of this solution was immediately added to each well of the 384 -well plate containing UBE2T or buffer. F inal concentrations: His -UBE1 (4 nM), UBE2T (6 nM), GST -RINGRING (50 nM), Cy5-ubiquitin (100 nM), ATP (0.2 mM), compound (10 or 20 μM) in 0.1 %
(v/v) DMSO. After a 10 minute incubation at 23 °C, 5 µL of a 50 mM EDTA solution were added to each well to stop the reaction. Signal was measured at λEx 340 nm and λEm 665 nm and 620 nm using a PHERAstar FS plate reader
(BMG Labtech). A ratio was calculated as [λEm(665)/λEm(620)] × 104 for each well and this was used to determine the percent inhibition for test compounds.
Gel-based ubiquitylation assays. Assays were carried out in a total volume of 10 µL containing 20 nM His6-UBE1 (Boston Biochem), 50 nM UBE2T, 250 nM GST-E3 and 500 nM biotinylated ubiquitin (Boston Biochem) in buffer (50

[2] = tested on: FANCD2 foci and γH2AX in U2OS cells; assay: High-throughput high content indirect immunofluorescence (FANCD2 foci, γH2AX); format: cell-based; settings: CU2 500 μM, HU 2.5 mM 8 h, cisplatin 10 μM 8 h; for H2AX positive nuclei, Experiment 1 / H2AX positive nuclei, Experiment 2 / H2AX positive nuclei, Experiment 3: CU1 200 μM, raw data; for H2AX positive nuclei, Totals: sum of experiments 1-3, CU1 200 μM
Method: In response to DNA damage, mUb-FANCD2 accumulates at sites of DNA lesions to form foci, promote DNA-damage sensing, activate cell-cycle checkpoints, and promote DNA repair.[23] Therefore, we employed high-throughput high-content indirect immunofluorescence studies to examine the effect of CU1 and CU2 on mUb-FANCD2 focus formation. The experimental format used was similar to the immunoblot-based experiments, excepting that, following treatment with HU (2.5 mM for 8 h) or cisplatin (10 μM for 8 h), cells were fixed, permeabilized and stained with specific FANCD2 primary and fluorescent secondary antibodies. In addition to monitoring mUb-FANCD2 foci, γH2AX was evaluated as a marker of DNA damage induction, and cell nuclei were visualized by 4′,6-diamidino-2-phenylindole (DAPI) staining. […] These observations are in accord with the immunoblot-based experiments wherein reductions in mUb-FANCD2 were observed (Figure 3a).
Figure 4 Further cell-based assays with CU1 and CU2: (a, b) Representative immunofluorescence images of U2OS cells treated with HU (2.5 mM, 8 h) or cisplatin (10 μM, 8 h) in the presence or absence of CU1 (200 μM) or CU2 (500 μM). (c) Quantification of the number of FANCD2 foci in cells treated as in panels (a) and (b). Data accumulated over three independent experiments, each consisting of three technical replicas. (d) IncuCyte analysis of U2OS cells treated with or without carboplatin (15 μM) and CU2 (250 μM). Mean calculated from three wells, four images per well. (HU = DMSO + HU, cisplatin = DMSO + cisplatin). […]
buffer (1 hour at room temperature) followed by three washes with PBST. Cells were then counterstained with DAPI (25 µg/mL) and mounted using Vectashield […]
High-throughput high content indirect immunofluorescence. U2OS cells, seeded in a 96-well plate, were treated with compound for 1 hour followed by 2.5 mM HU or 10 µM cisplatin for 8 hours. Cells were washed 3 times with wash buffer (1xPBS, 0.1% Tween-20) before being fixed in 2% paraformaldehyde (w/v) for 20 minutes at 23 °C. The cells were then washed a further 3 times in wash buffer before being stored overnight at 4°C in the final wash. Next day, the cells were permeabilized using 1xPBS, 0.5% Triton X-100 for 15 minutes at 23 °C and then washed 3 times with wash buffer before blocking with 5% BSA in 1xPBS, 0.1% Tween-20 for 30 minutes at 23 °C. After washing 3 times with wash buffer, the cells were incubated for 1 hour at 23 °C in the presence of primary antibodies (1:50 FANCD2, Santa Cruz, mouse monoclonal and 1:250 γH2AX, Cell Signalling, rabbit) in 5% BSA in wash buffer. After incubation in the presence of primary antibodies, the cells were washed 3 times with wash buffer before being incubated with secondary antibodies in 5% BSA in wash buffer for 1 hour in the dark at 23 °C. The secondary antibodies used were goat anti-mouse AlexaFluor 488 and goat anti-rabbit AlexaFluor 594 (both from Molecular Probes, Invitrogen). The cells were then washed a further 3 times with wash buffer before being stained in the presence of 2 µg/ml DAPI (Sigma D9542) in wash buffer for 10 minutes in the dark at 23 °C. After DAPI staining, the cells were washed 3 more times with wash buffer and stored in the final wash until ready for imaging.
A spinning-disk Opera PhenixTM (Perkin Elmer) microscope equipped with a 40x water immersion objective was employed to acquire 10 confocal images for each well in a single optimized focal plane comprising three fluorescence channels: 405, 488 and 568 nm for DAPI, Alexa Fluor 488 and Alexa Fluor 594, respectively. Image analysis and evaluation was done using Harmony High-Content Imaging and Analysis software. DAPI staining (405 nm) was used to segment nuclei, which were further gated for the presence of γH2AX staining

[3] = tested on: U2OS cells; assay: IncuCyte cell proliferation assay; format: cell-based; settings: 15 μM carboplatin in DMSO-treated cells
Method: Figure 4 Further cell-based assays with CU1 and CU2: (a, b) Representative immunofluorescence images of U2OS cells treated with HU (2.5 mM, 8 h) or cisplatin (10 μM, 8 h) in the presence or absence of CU1 (200 μM) or CU2 (500 μM). (c) Quantification of the number of FANCD2 foci in cells treated as in panels (a) and (b). Data accumulated over three independent experiments, each consisting of three technical replicas. (d) IncuCyte analysis of U2OS cells treated with or without carboplatin (15 μM) and CU2 (250 μM). Mean calculated from three wells, four images per well. (HU = DMSO + HU, cisplatin = DMSO + cisplatin).
Finally, to investigate if CU1 and CU2 could sensitize cells to a more clinically relevant chemotherapeutic agent, quantitative live cell analyses were performed using the IncuCyte platform. As the FA pathway is involved in the repair of ICLs, cells were treated with the ICL-inducing chemotherapeutic drug, carboplatin. For this experiment, U2OS cells were seeded at a relatively low (<10%) density and preincubated with CU1 or CU2 for 1 h. Carboplatin was then added to the cells and images were taken every 6 h for 8 days in order to monitor growth and proliferation of the cells.
Reaction mixtures were incubated for the indicated time at 37 °C and stopped by the addition of 2X reducing SDS -PAGE sample buffer, separated on NuPAGE Novex 4 –12% Bis/Tris gradient gels (Invitrogen) and visualized by Western blotting using the indicated antibodies (Table S3).
Cell culture. U2OS cells were cultured at 37 °C in a humidified atmosphere and 5% (v/v) CO2 in Dulbecco's Modified Eagle Medium (DMEM; Sigma-Aldrich) supplemented with 10% (v/v) fetal bovine serum (FBS), 100 units/ml of penicillin, […] of streptomycin and 292 μg/mL L-glutamine.
Cell extract preparation and immunoblotting. U2OS cells were lysed in buffer containing 50 mM Tris-HCl pH 7.5, 2% SDS, 10 mM NEM, cocktail protease inhibitor (Roche) and phosphatase inhibitor cocktail followed by sonication 100 µg of extracts were boiled for 5 mins at 95 °C in 5X loading buffer and loaded onto NuPAGE Novex 4–12% Bis/Tris gradient gels
(Invitrogen), or NuPAGE Novex 3-8% Tris/Acetate gradient gels (Invitrogen) for detection of mUb-FANCD2. After separation the gels were transferred to PVDF and the membranes were blocked with Tris-buffered saline containing 0.1% (v/v) Tween-20 (TBST) and 5% (v/v) bovine serum albumin (BSA) and incubated with the indicated primary and secondary antibodies. mUb-FANCD2 intensity was quantified using Image Studio (LI-COR).
IncuCyte cell proliferation assays. 2000 U2OS cells were seeded per well in 96-well plates and treated with compounds 24 hours afterwards. After 1 hour of compound treatment, 15 µM carboplatin (Sigma-Aldrich) was added and the cells were cultured in an incubator with an IncuCyte microscopy -platform (Essen BioScience). Phase -contrast images were acquired every 6 hours for 8 days until DMSO-carboplatin treated cells reached >80% confluence. Cell proliferation was monitored as the occupied area (% confluence) of cell images over time and calculated as percentage confluence over time. Cell confluency percentages were calculated using the integrated Cell Player software and results were analysed with Prism 6 (GraphPad Software).

[4] = library stock, 10-point dose-response, read-out: Primary screen IC50
[5] = printed beside the structures in Figure S3, read-out: IC50 (Figure S3)

| Structure (SMILES) | IC50 [1, 4] [µM] | LE [1] | IC50 [1, 5] [µM] | inhibition at 20 µM [1] [%] | H2AX positive nuclei, Experiment 1 [2] | H2AX positive nuclei, Experiment 2 [2] | H2AX positive nuclei, Experiment 3 [2] | H2AX positive nuclei, Totals [2] | proliferation rate [3] | confluency ([3]; after 8 days) [%] |
| --- | --- | --- | --- | --- | --- | --- | --- | --- | --- | --- |
| COc1ccc(CNC(=O)c2ccc(-n3nccc3C)cc2)cc1C(=O)O [CU3] | 51.8 | 0.22 | 49.8 | 20.3 |  |  |  |  |  |  |
| Cc1cc(C(=O)O)cc(S(=O)(=O)Nc2ccccc2-n2cccn2)c1C [CU4] | 61 | 0.22 | 82.5 | 20.7 |  |  |  |  |  |  |
| O=C(c1ccc2n[nH]nc2c1)N1CCC(COc2ccccc2)CC1 [CU6] | 30.8 | 0.26 | 25.8 | 37 |  |  |  |  |  |  |
| Cc1nc2ccccc2n1CCNS(=O)(=O)c1ccc2c(c1)CC(=O)N2 [CU7] | 64.2 | 0.24 | 35.3 | 39.6 |  |  |  |  |  |  |
| Cn1ncc(C#N)c1NC(=O)Cc1coc2cc3c(cc12)CCC3 [CU8] | 33.7 | 0.24 | 73.2 | 34 |  |  |  |  |  |  |
| NC(=O)NO [HU, Hydroxyurea, reference compound] |  |  |  |  | 390 | 672 | 708 | 1770 |  |  |
| N.N.O=C([O-])C1(C(=O)[O-])CCC1.[Pt+2] [carboplatin, reference compound] |  |  |  |  |  |  |  |  | clear reduction in proliferation rate | < 100 |
| N.N.[Cl][Pt][Cl] [cisplatin, reference compound] |  |  |  |  | 915 | 1122 | 1056 | 3093 |  |  |
